Assay: xn = mol fraction of the nth substance listed
Conditions: 100 kPa, Liquid; for speed of sound: Frequency=3 MHz, Single path-length method; for mass density: Vibrating tube method

OCC(O)CO [glycerol] + CCO
Conditions | mass density, 283.15 K [kg/m3] | mass density, 293.15 K [kg/m3] | mass density, 303.15 K [kg/m3] | mass density, 313.15 K [kg/m3] | speed of sound, 283.15 K [m/s] | speed of sound, 293.15 K [m/s] | speed of sound, 303.15 K [m/s] | speed of sound, 313.15 K [m/s]
x2 = 0 | 1267 | 1261 | 1255 | 1248 | 1942.3 | 1922.9 | 1901 | 1879.3
x2 = 0.0999 | 1233 | 1227 | 1220 | 1214 | 1882.1 | 1852.5 | 1827.9 | 1804.6
x2 = 0.2002 | 1199 | 1193 | 1186 | 1179 | 1804.3 | 1778.9 | 1753.4 | 1729.7
x2 = 0.2998 | 1161 | 1155 | 1148 | 1140 | 1721.8 | 1696.1 | 1671.4 | 1647.2
x2 = 0.4001 | 1120 | 1113 | 1106 | 1099 | 1639.2 | 1613.3 | 1587.9 | 1562.8
x2 = 0.4993 | 1077 | 1069 | 1062 | 1055 | 1557.7 | 1530.9 | 1504.6 | 1478.5
x2 = 0.6004 | 1029 | 1021 | 1014 | 1006 | 1476.1 | 1448.4 | 1421.1 | 1394
x2 = 0.699 | 978 | 970 | 963 | 955 | 1401.7 | 1372.8 | 1344.2 | 1315.8
x2 = 0.9002 | 862 | 854 | 845 | 837 | 1263.5 | 1231.4 | 1199.4 | 1167.7

OCC(O)CO [glycerol] + CO
Conditions | mass density, 283.15 K [kg/m3] | mass density, 293.15 K [kg/m3] | mass density, 303.15 K [kg/m3] | mass density, 313.15 K [kg/m3] | speed of sound, 283.15 K [m/s] | speed of sound, 293.15 K [m/s] | speed of sound, 303.15 K [m/s] | speed of sound, 313.15 K [m/s]
x2 = 0 | 1267 | 1261 | 1255 | 1248 | 1942.3 | 1922.9 | 1901 | 1879.3
x2 = 0.1003 | 1244 | 1238 | 1232 | 1225 | 1901.8 | 1873 | 1848.8 | 1826.1
x2 = 0.1997 | 1220 | 1213 | 1207 | 1200 | 1841.5 | 1816.1 | 1792.7 | 1770
x2 = 0.3002 | 1192 | 1186 | 1179 | 1172 | 1779.2 | 1755.3 | 1732.3 | 1709.5
x2 = 0.4011 | 1158 | 1152 | 1145 | 1138 | 1708.9 | 1684.6 | 1660.7 | 1637.1
x2 = 0.4999 | 1119 | 1112 | 1105 | 1098 | 1628.4 | 1604 | 1579.6 | 1555.3
x2 = 0.5998 | 1075 | 1068 | 1060 | 1053 | 1546.5 | 1521.1 | 1495.6 | 1470.4
x2 = 0.7 | 1024 | 1016 | 1009 | 1001 | 1457.7 | 1430.9 | 1404.2 | 1377.6
x2 = 0.8002 | 964 | 956 | 947 | 939 | 1364.5 | 1336.1 | 1307.8 | 1279.7
x2 = 0.8999 | 892 | 883 | 874 | 865 | 1265.5 | 1234.9 | 1204.5 | 1174.5

OCC(O)CO [glycerol] + O
Conditions | mass density, 283.15 K [kg/m3] | mass density, 293.15 K [kg/m3] | mass density, 303.15 K [kg/m3] | mass density, 313.15 K [kg/m3] | speed of sound, 283.15 K [m/s] | speed of sound, 293.15 K [m/s] | speed of sound, 303.15 K [m/s] | speed of sound, 313.15 K [m/s]
x2 = 0 | 1267 | 1261 | 1255 | 1248 | 1942.3 | 1922.9 | 1901 | 1879.3
x2 = 0.1003 | 1261 | 1255 | 1249 | 1243 | 1951.7 | 1922 | 1897.9 | 1875.7
x2 = 0.1998 | 1254 | 1248 | 1242 | 1236 | 1940.9 | 1915.6 | 1893.3 | 1871.9
x2 = 0.3014 | 1246 | 1240 | 1234 | 1228 | 1931.5 | 1909 | 1888 | 1867.3
x2 = 0.4042 | 1236 | 1230 | 1224 | 1218 | 1919.2 | 1899.3 | 1879.7 | 1859.8
x2 = 0.5011 | 1224 | 1218 | 1212 | 1205 | 1903.7 | 1886 | 1867.9 | 1849.3
x2 = 0.6011 | 1206 | 1201 | 1194 | 1188 | 1879.7 | 1864.7 | 1848.8 | 1832
x2 = 0.7003 | 1183 | 1177 | 1172 | 1166 | 1841.6 | 1830.6 | 1818.2 | 1804.5
x2 = 0.7999 | 1148 | 1143 | 1137 | 1131 | 1772.9 | 1769.3 | 1763.5 | 1755.4
x2 = 0.9024 | 1091 | 1087 | 1083 | 1078 | 1648.7 | 1659.3 | 1665.8 | 1668.4

Source: the NIST ThermoML archive (doi:10.1016/j.jct.2017.01.011)
